Our source for the IC50 values is ChEMBL document CHEMBL5728544, “Compounds and methods for the targeted degradation of interleukin-1 receptor- associated kinase 4 polypeptides” (2021).

The assay has as its target T1, Interleukin-1 receptor-associated kinase 4 (Homo sapiens, UniProt Q9NWZ3).
T1 sequence (Q9NWZ3 whole entry): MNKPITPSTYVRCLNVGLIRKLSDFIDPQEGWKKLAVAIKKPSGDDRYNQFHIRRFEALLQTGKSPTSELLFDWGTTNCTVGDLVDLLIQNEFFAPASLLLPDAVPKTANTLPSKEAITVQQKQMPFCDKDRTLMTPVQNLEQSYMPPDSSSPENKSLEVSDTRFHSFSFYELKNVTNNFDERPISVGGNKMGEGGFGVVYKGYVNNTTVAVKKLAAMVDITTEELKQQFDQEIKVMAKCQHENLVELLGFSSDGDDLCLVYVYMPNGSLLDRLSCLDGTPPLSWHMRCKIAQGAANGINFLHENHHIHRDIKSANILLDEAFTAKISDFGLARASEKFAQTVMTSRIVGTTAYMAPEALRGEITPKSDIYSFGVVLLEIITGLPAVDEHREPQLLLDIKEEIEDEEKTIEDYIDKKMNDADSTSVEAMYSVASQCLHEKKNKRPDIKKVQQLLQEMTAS
The experiment in a line: Biochemical Assay: A Z′-Lyte assay based on a fluorescence resonance energy transfer (FRET) readout was developed for measuring IRAK4-dependent phosphorylation of a FRET-peptide substrate as described by Thermo Fisher Scientific (Grand Island, N.Y.). At a starting concentration of 1.5 mM, the identified compounds were serially diluted with 100% dimethyl sulfoxide (DMSO) in 3-fold increments, into Greiner bio-one 96-well plates (cat. #: 650201, Greiner bio-one, Monroe, N.C.). Compounds were then transferred to intermediate Greiner bio-one 96-well plates and diluted 10-fold with Kinase assay buffer (25 mM HEPES, pH 7.5, 10 mM MgCl2, 10 mM MnCl2, 1 mM EGTA, and 0.01% Brij-35, 2 mM DTT). Three μL of the serially diluted compounds were then transferred in duplicate to low-volume 384-well black proxiplates (cat. #: 6008269; Perkin Elmer, Akron, Ohio), to give duplicate twelve-point concentration curves. Six μl of a 2.5× solution of IRAK4 enzyme (cat #: 40064, BPS Bioscience, San Diego, Calif.) in kinase buffer was added to each well, followed by a 10 minutes pre-incubation step. Reactions were initiated by adding 6 μl of a 2.5× substrate mix of ATP and Z′-Lyte Ser/Thr 7 peptide (cat. #: PV3180, Thermo Fisher Scientific, Grand Island, N.Y.) and proceeded at room temperature for 1 hour. […].

Usually IC50 stands for the point on the concentration scale where inhibition reaches its midpoint. Higher therefore signals weaker potency.

Where only a bound is given, the exact number is not on record here.

Compound `O=C1CCC(N2C(=O)c3ccc(OC4CCC(CN5CCN(Cc6ccc7c(c6)nc(NC(=O)c6cccc(C(F)(F)F)c6)n7C6CCC(CO)CC6)CC5)CC4)cc3C2=O)C(=O)N1` (stereo unspecified) came in with an IC50 below 30 nM.
